Series [1] relates to mouse. As to the kind of experiment: Determination of the minimum toxic dose. It counts as in vivo, mouse (male). The settings on record: p.o.; maximum dose 300 mg/kg; symptoms recorded for 24 hours. Here is the method:
DETERMINATION OF THE MINIMUM TOXIC DOSE
Maximum doses of 300 mg/kg. of the test substance are administered orally to male mice of 20-25 g. weight. The animals are observed carefully for toxicity symptoms for 3 hours. In addition, all symptoms and cases of death are recorded for a period of 24 hours after administration. Accompanying symptoms are also observed and recorded. If death- or toxic symptoms are observed, decreasing doses are administered to additional mice until no more toxic symptoms occur. The lowest dose which induces toxic symptoms is reported as the minimum toxic dose.

For series [2], the system named is mouse. As to the kind of experiment: Tail flick ray test on the mouse. It counts as in vivo. The settings on record: sc, 0.5 h, s.c., 30 minutes after administration. Here is the method: TAIL FLICK RAY TEST ON THE MOUSE
The method is based on the procedure described by D'Amour and Smith (1941). However, non-fasting male and female mice having body weights of 16-25 g. are used instead of rats. 30 minutes before treatment with the test substance, each mouse is placed alone in a cylindrical vessel such that it cannot turn round and move forward. Its tail, lying in a narrow groove, projects out of the vessel. A particular point on the tail of each animal (at about 35 mm. from the root of the tail) is subjected to the radiant heat from a lamp of known intensity and temperature which is situated directly beneath the tail. The time in seconds required by the mouse to flick the tail out of the ray of light is determined twice, once 30 and once 15 minutes before subcutaneous administration of the test substance (10 mg./kg.). The mice for which the reaction times deviate by more than 25% are eliminated. The reaction times are again measured 15 and 30 minutes after treatment and an increase in the reaction times of more than 75% of the average values before treatment of the same mouse is regarded as an analgesic effect. The ED50 (95% confidence range) of each test substance 30 minutes after administration is regarded as that dose which increases the reaction time before treatment by more than 75% in 50% of the animals. The calculation is carried out in accordance with the method of Litchfield and Wilcoxon (1949).

The test system of another series is rat. As to the kind of experiment: Arthritis pain test on the rat (inhibition of the arthritis pain). The settings on record: p.o., 3 hours after oral dosage. It counts as in vivo, rat (male, strain OFA). Here is the method:
ARTHRITIS PAIN TEST ON THE RAT
Male rats of the strain OFA with a weight of 160-180 g. are anaesthetised by administration of 20 mg./kg. i.p. of phenobarbital sodium. 0.1 ml. of a suspension of Mycobacterium Smegmae (S1043) in paraffin oil (0.6 mg. of Mycobact./0.1 ml. of oil) are injected intracutaneously into the left rear paw. 14 days later, when a marked secondary arthritis has developed, particularly in the right rear paw, the effects of the test substances are investigated. 30 minutes before administration of the test substances, a control measurement in undertaken in which the ankle joint of the right rear paw is flexed three times and the number of sounds given out is counted. […] 3 hours after oral dosage of the test substance, the flexion procedure is repeated. Animals which either give out sound only once or not at all are regarded as being protected against pain. Between 9 and 20 rats are used per dose and the ED50 (95% confidence range) is determined by the method of Litchfield and Wilcoxon) (1949). The ED50 is designated at that dose which produces protection in 50% of the animals treated.

For the compound `CN1c2ccccc2C(c2ccsc2)=NCC1CNC(=O)c1ccoc1` (stereo not shown) [Example 1, 1-Methyl-2-[(furan-3-carbonyl)-aminomethyl]-5-(3'-thienyl)-1H-2,3-dihydro-1,4-benzodiazepine], the “Minimum toxic dose in the mouse” value with mouse [1] turned out to be 200 mg/kg. The values for the ED50 in the series with mouse [2] and in the series on rat were 1 mg/kg and 32 to 56 mg/kg, respectively.

As for `COc1ccc2c(c1)N(C)C(CNC(=O)c1ccccc1)CN=C2c1ccsc1` (stereo not shown) [Example 5, 8-Methoxy-1-methyl-2-benzoylaminomethyl-5-(3'-thienyl)-1H-2,3-dihydro-1,4-benzodiazepine], the “Minimum toxic dose in the mouse” value with mouse [1] is 300 mg/kg. Moreover, the ED50 (commonly the dose at which the effect has come halfway, by size or by number of responders) with mouse [2] was 2.7 mg/kg; with rat, roughly 10 mg/kg.

For the compound `CN1c2ccccc2C(c2ccsc2)=NCC1CNC(=O)c1ccc(C(F)(F)F)cc1` (stereo not shown) [Example 6, 1-Methyl-2-[(4'-trifluoromethylbenzoyl)-aminomethyl]-5-(3'-thienyl)-1H-2,3-dihydro-1,4-benzodiazepine], the “Minimum toxic dose in the mouse” value with mouse [1] turned out to be 300 mg/kg. The ED50 in the series on rat amounted to 2 mg/kg.

`CN1c2ccccc2C(c2ccsc2)=NCC1CNC(=O)c1ccc(C#N)cc1` (stereo not shown) [Example 7, 1-Methyl-2-[(4-cyanobenzoyl)-aminomethyl]-5-(3'-thienyl)-1H-2,3-dihydro-1,4-benzodiazepine]: the “Minimum toxic dose in the mouse” value with mouse [1] is greater than 300 mg/kg. In addition, the ED50 with rat came out at 8.5 mg/kg.

Consider `CN1c2ccccc2C(c2ccsc2)=NCC1CNC(=O)c1ccccc1` (stereo not shown) [Example 11], for which the “Minimum toxic dose in the mouse” value in the series on mouse [1] came out at 300 mg/kg. Moreover, the ED50 in the series with mouse [2] was 2.8 mg/kg; with rat, roughly 2 mg/kg.

Turning to `COc1ccc2c(c1)N(C)C(CNC(=O)c1ccc(C(F)(F)F)cc1)CN=C2c1ccsc1` (stereo not shown) [Example 12], the “Minimum toxic dose in the mouse” value in the series with mouse [1] was greater than 300 mg/kg. Further, in the series on rat, the ED50 amounted to 32 mg/kg.

For the compound `COc1ccc2c(c1)N(C)C(CNC(=O)c1ccsc1)CN=C2c1ccsc1` (stereo not shown) [Example 13], in the series with mouse [1], the “Minimum toxic dose in the mouse” value stood at 200 mg/kg. Moreover, the ED50 was 10 mg/kg with mouse [2] and 32 to 56 mg/kg in the series with rat.

For `CN1c2cc3c(cc2C(c2ccsc2)=NCC1CNC(=O)c1cccs1)OCO3` (stereo not shown) [Example 14], the “Minimum toxic dose in the mouse” value with mouse [1] amounted to 100 mg/kg. The values for the ED50 in the series on mouse [2] and in the series on rat were 5 mg/kg and 32 to 56 mg/kg, respectively.

As to `CN1c2ccccc2C(c2ccc(Cl)s2)=NCC1CNC(=O)c1ccc(C#N)cc1` (stereo not shown) [Example 84], the “Minimum toxic dose in the mouse” value in the series on mouse [1] was greater than 300 mg/kg. This compound also showed a 50% effective dose (ED50) in the series on rat of 18 mg/kg.

Take `Cc1ccsc1C1=NCC(CNC(=O)c2ccoc2)N(C)c2ccccc21` (stereo not shown) [Example 87]: the ED50 is 2.6 mg/kg in the series with mouse [2] and 18 to 32 mg/kg with rat.

Take `Cc1ccsc1C1=NCC(CNC(=O)c2ccccc2)N(C)c2ccccc21` (stereo not shown) [Example 88]: the 50% effective dose (ED50) with mouse [2] is 8.3 mg/kg; in the series on rat, 18 to 32 mg/kg.

On to `Cc1ccsc1C1=NCC(CNC(=O)c2ccc(C#N)cc2)N(C)c2ccccc21` (stereo not shown) [Example 89], for which the ED50 with rat was found to be 10 mg/kg.

The values above are taken from US4649137A, “2-acylaminomethyl-1,4-benzodiazepine compounds, the preparation thereof, and pharmaceutical compositions containing them” (Kali-Chemie Pharma GmbH, priority 1981, dated 1987).
